We go through 23 compounds from patent US8618289B2 (Ambit Biosciences Corporation, priority 2008, dated 2013).

For experiment [1], the target named is RAF kinases (Homo sapiens, UniProt P04049). Put plainly: biochemical.
For experiment [2], the target named is RAF kinases (Homo sapiens, UniProt P15056). In words: biochemical.
The next experiment deals with A375 cells. In words: cells. The note with it: Homo sapiens, A-375, read-out: A375 Viability EC50.
In experiment [3] the test system is MEK1 phosphorylation in the A375 human melanoma cell line. Put plainly: cells. Conditions: A-375, read-out: pMEK IC50.

Structures can show the parent of a compound that is named as a salt. A value given as a limit tells only on which side of the number the result lay.

Chain of RAF kinases (Homo sapiens, UniProt P15056) (P15056 whole entry): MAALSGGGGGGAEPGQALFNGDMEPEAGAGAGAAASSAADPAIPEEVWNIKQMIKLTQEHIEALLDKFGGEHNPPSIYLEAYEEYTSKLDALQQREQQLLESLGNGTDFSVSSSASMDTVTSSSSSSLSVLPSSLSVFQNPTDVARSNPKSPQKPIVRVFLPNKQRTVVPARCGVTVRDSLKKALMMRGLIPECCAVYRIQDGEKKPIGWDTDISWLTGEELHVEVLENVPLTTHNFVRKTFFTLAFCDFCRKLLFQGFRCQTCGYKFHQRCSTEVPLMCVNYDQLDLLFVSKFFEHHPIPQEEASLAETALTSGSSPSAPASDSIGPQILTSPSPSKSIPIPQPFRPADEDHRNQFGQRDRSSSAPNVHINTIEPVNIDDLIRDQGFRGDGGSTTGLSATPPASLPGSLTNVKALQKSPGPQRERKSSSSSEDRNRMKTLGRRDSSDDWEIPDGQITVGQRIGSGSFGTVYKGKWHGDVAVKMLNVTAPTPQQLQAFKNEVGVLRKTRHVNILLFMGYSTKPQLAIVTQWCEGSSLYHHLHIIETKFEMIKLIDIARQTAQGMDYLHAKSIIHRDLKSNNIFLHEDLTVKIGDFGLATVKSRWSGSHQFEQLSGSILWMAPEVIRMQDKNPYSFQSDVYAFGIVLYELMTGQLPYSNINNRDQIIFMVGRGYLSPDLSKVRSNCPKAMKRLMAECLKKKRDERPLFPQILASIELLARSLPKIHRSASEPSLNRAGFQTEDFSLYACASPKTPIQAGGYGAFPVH
Chain of RAF kinases (Homo sapiens, UniProt P04049) (P04049 whole entry): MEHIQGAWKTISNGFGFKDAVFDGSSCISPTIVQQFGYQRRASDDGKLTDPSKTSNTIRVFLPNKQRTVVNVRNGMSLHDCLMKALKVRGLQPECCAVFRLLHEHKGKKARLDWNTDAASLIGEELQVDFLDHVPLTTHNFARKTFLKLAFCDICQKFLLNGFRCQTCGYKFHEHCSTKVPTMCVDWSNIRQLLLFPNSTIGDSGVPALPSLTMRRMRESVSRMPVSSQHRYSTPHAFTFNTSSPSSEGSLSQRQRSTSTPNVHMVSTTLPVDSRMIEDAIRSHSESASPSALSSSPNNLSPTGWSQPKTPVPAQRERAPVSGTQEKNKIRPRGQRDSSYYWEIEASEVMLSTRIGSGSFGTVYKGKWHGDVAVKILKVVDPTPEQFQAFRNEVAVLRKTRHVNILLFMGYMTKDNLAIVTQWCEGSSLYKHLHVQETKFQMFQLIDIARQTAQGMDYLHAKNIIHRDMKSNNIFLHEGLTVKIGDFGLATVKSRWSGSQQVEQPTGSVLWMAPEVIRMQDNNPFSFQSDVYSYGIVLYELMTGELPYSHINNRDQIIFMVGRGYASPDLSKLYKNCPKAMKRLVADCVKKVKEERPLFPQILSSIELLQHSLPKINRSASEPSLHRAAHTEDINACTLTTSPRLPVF

One may read the Kd as a measure of binding affinity in units of concentration. The low end stands for tighter binding, the high end for weaker binding. As a reminder, the EC50 is the concentration needed to bring the measured effect to its halfway point. One may read the IC50 as the point on the concentration scale where inhibition reaches its midpoint. Regarding `COCCOc1cc2c(Oc3cccc(NC(=O)Nc4cc(C(C)(C)C)on4)c3)ncnc2cc1OC` [Ex 15, 1-(5-tert-butylisoxazol-3-yl)-3-{3-[7-methoxy-6-(2-methoxyethoxy)quinazolin-4-yloxy]phenyl}urea hydrochloride], the Kd at RAF kinases [1] and on RAF kinases [2] was 250 to 500 nM in each case. The EC50 with A375 cells was < 250 nM. For the same compound, the IC50 in experiment [3] was < 250 nM.

As to `COc1cc2ncnc(Oc3cccc(NC(=O)Nc4cc(C(C)(C)C)on4)c3)c2cc1OCCN1CCC(CO)CC1` [Ex 17, 1-(5-tert-butylisoxazol-3-yl)-3-(3-(6-(2-(4-(hydroxymethyl)piperidin-1-yl)ethoxy)-7-methoxyquinazolin-4-yloxy)phenyl)urea], the dissociation constant Kd at RAF kinases [1] and at RAF kinases [2] was 500 to 1000 nM in each case. Besides, the concentration for a half-maximal effect (EC50) in the experiment with A375 cells is 250 to 500 nM. The IC50 in experiment [3] was 250 to 500 nM.

For the compound `COc1cc2ncnc(Oc3cccc(NC(=O)Nc4cc(C(C)(C)C)on4)c3)c2cc1OCCN1CCN(C)CC1` [Ex 18, 1-(5-tert-butylisoxazol-3-yl)-3-(3-(7-methoxy-6-(2-(4-methylpiperazin-1-yl)ethoxy)quinazolin-4-yloxy)phenyl)urea], the Kd on RAF kinases [1] lay within 500 to 1000 nM; at RAF kinases [2] it was 250 to 500 nM. In the experiment with A375 cells, the concentration for a half-maximal effect (EC50) lay in the range of 250 to 500 nM. Also, in experiment [3], the IC50 was < 250 nM.

Regarding `COc1cc2ncnc(Oc3cccc(NC(=O)Nc4cc(C(C)(C)C)on4)c3)c2cc1OCCN1CCN(CCO)CC1` [Ex 19, 1-(5-tert-butylisoxazol-3-yl)-3-(3-(6-(2-(4-(2-hydroxyethyl)piperazin-1-yl)ethoxy)-7-methoxyquinazolin-4-yloxy)phenyl)urea], the Kd at RAF kinases [1] and at RAF kinases [2] was 250 to 500 nM each time. Moreover, the EC50 in the experiment on A375 cells lay in the range of 250 to 500 nM. For the same compound, the IC50 in experiment [3] was < 250 nM.

In the case of `COc1cc2ncnc(Oc3cccc(NC(=O)Nc4cc(C(C)(C)C)on4)c3)c2cc1OCCN1CCOCC1` [Ex 20, 1-(5-tert-butylisoxazol-3-yl)-3-(3-(7-methoxy-6-(2-morpholinoethoxy)quinazolin-4-yloxy)phenyl)urea], the Kd on RAF kinases [1] and on RAF kinases [2] was 250 to 500 nM each time. The EC50 in the experiment with A375 cells was < 250 nM. In experiment [3], the IC50 is < 250 nM.

In the case of `COc1cc2ncnc(Oc3cccc(NC(=O)Nc4cc(C(C)(C)C)on4)c3)c2cc1OCCCN1CCN(C)CC1` [Ex 21, 1-(5-tert-butylisoxazol-3-yl)-3-(3-(7-methoxy-6-(3-(4-methylpiperazin-1-yl)propoxy)quinazolin-4-yloxy)phenyl)urea], the Kd on RAF kinases [1] and on RAF kinases [2] was 250 to 500 nM throughout. Moreover, the EC50 with A375 cells lay in the range of 250 to 500 nM. In experiment [3], the IC50 is < 250 nM.

Take `COc1cc2ncnc(Oc3cccc(NC(=O)Nc4cc(C(C)(C)C)on4)c3)c2cc1OCCCN1CCCCC1` [Ex 23, 1-(5-tert-butylisoxazol-3-yl)-3-(3-(7-methoxy-6-(3-(piperidin-1-yl)propoxy)quinazolin-4-yloxy)phenyl)urea]: the Kd on RAF kinases [1] and at RAF kinases [2] was 500 to 1000 nM throughout. Moreover, the EC50 with A375 cells was in the range of 500 to 1000 nM. Moreover, in experiment [3], the IC50 was < 250 nM.

With `COc1cc2ncnc(Oc3cccc(NC(=O)Nc4cc(C(C)(C)C)on4)c3)c2cc1OCCCN1CCC(CO)CC1` [Ex 24, 1-(5-tert-butylisoxazol-3-yl)-3-(3-(6-(3-(4-(hydroxymethyl)piperidin-1-yl)propoxy)-7-methoxyquinazolin-4-yloxy)phenyl)urea], the Kd at RAF kinases [1] and on RAF kinases [2] was 500 to 1000 nM throughout. In the experiment on A375 cells, the EC50 fell in the range of 500 to 1000 nM. Also, in experiment [3], the IC50 was < 250 nM.

Take `COc1cc2ncnc(Oc3cccc(NC(=O)Nc4cc(C(C)(C)C)on4)c3)c2cc1OCCCN1CCN(S(C)(=O)=O)CC1` [Ex 25, 1-(5-tert-butylisoxazol-3-yl)-3-(3-(7-methoxy-6-(3-(4-(methylsulfonyl)piperazin-1-yl)propoxy)quinazolin-4-yloxy)phenyl)urea]: the Kd on RAF kinases [1] and on RAF kinases [2] was 250 to 500 nM each time. Moreover, the EC50 in the experiment on A375 cells was < 250 nM. The IC50 in experiment [3] is < 250 nM.

Take `COc1cc2c(Oc3cccc(NC(=O)Nc4cc(C(C)(C)C)on4)c3)ncnc2cc1OCCCN1CCOCC1` [Ex 27, 1-(5-tert-butylisoxazol-3-yl)-3-(3-(6-methoxy-7-(3-morpholinopropoxy)quinazolin-4-yloxy)phenyl)urea]: the Kd on RAF kinases [1] and at RAF kinases [2] was 250 to 500 nM throughout. Further, the EC50 in the experiment on A375 cells was < 250 nM. The IC50 in experiment [3] is < 250 nM.

With `COc1cc2c(Oc3cccc(NC(=O)Nc4cc(C(C)(C)C)on4)c3)ncnc2cc1OCCCN1CCC(CO)CC1` [Ex 29], the dissociation constant (Kd) at RAF kinases [1] and at RAF kinases [2] was 250 to 500 nM in each case. Further, the EC50 in the experiment on A375 cells was < 250 nM. In addition, in experiment [3], the IC50 was < 250 nM.

Turning to `COc1cc2c(Oc3cccc(NC(=O)Nc4cc(C(C)(C)C)on4)c3)ncnc2cc1OCCCN1CCC(O)C1` (centres unmarked) [Ex 31, 1-(5-tert-butyl-isoxazol-3-yl)-3-(3-{7-[3-(3-hydroxy-pyrrolidin-1-yl)-propoxy]-6-methoxy-quinazolin-4-yloxy}-phenyl)-urea], the Kd at RAF kinases [1] and at RAF kinases [2] was 250 to 500 nM throughout. Further, the EC50 in the experiment on A375 cells is < 250 nM. Moreover, in experiment [3], the IC50 was < 250 nM.

Turning to `COc1cc2c(Oc3cccc(NC(=O)Nc4cc(C(C)(C)C)on4)c3)ncnc2cc1OCCCN1CCN(S(C)(=O)=O)CC1` [Ex 32, 1-(5-tert-butylisoxazol-3-yl)-3-(3-(6-methoxy-7-(3-(4-(methylsulfonyl)piperazin-1-yl)propoxy)quinazolin-4-yloxy)phenyl)urea], the dissociation constant (Kd) on RAF kinases [1] lay within 250 to 500 nM; at RAF kinases [2], 500 to 1000 nM. The EC50 with A375 cells is 250 to 500 nM. Also, the IC50 in experiment [3] is < 250 nM.

On to `COc1cc2c(Oc3cccc(NC(=O)Nc4cc(C(C)(C)C)on4)c3)ncnc2cc1OCCCN1CC[C@H](O)C1` [Ex 33, (S)-1-(5-tert-butylisoxazol-3-yl)-3-(3-(7-(3-(3-hydroxypyrrolidin-1-yl)propoxy)-6-methoxyquinazolin-4-yloxy)phenyl)urea], for which the Kd at RAF kinases [1] and on RAF kinases [2] was 250 to 500 nM throughout. Besides, the EC50 with A375 cells is < 250 nM. Moreover, in experiment [3], the IC50 was < 250 nM.

With `COc1cc2c(Oc3cccc(NC(=O)Nc4cc(C(C)(C)C)on4)c3)ncnc2cc1OCCCN1CC[C@@H](O)C1` [Ex 34, (R)-1-(5-tert-Butylisoxazol-3-yl)-3-(3-(7-(3-(3-hydroxypyrrolidin-1-yl)propoxy)-6-methoxyquinazolin-4-yloxy)phenyl)urea], the Kd on RAF kinases [1] and on RAF kinases [2] was 250 to 500 nM in each case. For the same compound, the concentration giving a half-maximal response (EC50) in the experiment on A375 cells was > 1000 nM. The IC50 in experiment [3] is < 250 nM.

As for `COc1cc2c(Oc3cccc(NC(=O)Nc4cc(C(C)(C)C)on4)c3)ncnc2cc1OCCN1CCOCC1` [Ex 35, 1-(5-tert-butylisoxazol-3-yl)-3-(3-(6-methoxy-7-(2-morpholinoethoxy)quinazolin-4-yloxy)phenyl)urea], the Kd at RAF kinases [1] and at RAF kinases [2] was 250 to 500 nM in each case. The EC50 in the experiment on A375 cells lay within 500 to 1000 nM. Further, the IC50 in experiment [3] was < 250 nM.

Regarding `COc1cc2c(Oc3cccc(NC(=O)Nc4cc(C(C)(C)C)on4)c3)ncnc2cc1OCCN1CCN(C)CC1` [Ex 36, 1-(5-tert-butylisoxazol-3-yl)-3-(3-(6-methoxy-7-(2-(4-methylpiperazin-1-yl)ethoxy)quinazolin-4-yloxy)phenyl)urea], the Kd on RAF kinases [1] and on RAF kinases [2] was 250 to 500 nM throughout. Further, the EC50 in the experiment on A375 cells is 250 to 500 nM. Moreover, the IC50 in experiment [3] was < 250 nM.

Regarding `COc1cc2c(Oc3cccc(NC(=O)Nc4cc(C(C)(C)C)on4)c3)ncnc2cc1OCCN1CCC(CO)CC1` [Ex 37, 1-(5-tert-butyl-isoxazol-3-yl)-3-(3-{7-[2-(4-hydroxymethyl-piperidin-1-yl)-ethoxy]-6-methoxy-quinazolin-4-yloxy}-phenyl)-urea], the Kd on RAF kinases [1] and at RAF kinases [2] was 250 to 500 nM in each case. Also, the EC50 in the experiment with A375 cells was 250 to 500 nM. Also, the IC50 in experiment [3] was < 250 nM.

Turning to `COc1cc2c(Oc3cccc(NC(=O)Nc4cc(C(C)(C)C)on4)c3)ncnc2cc1OCCN1CCN(CCO)CC1` [Ex 38, 1-(5-tert-butylisoxazol-3-yl)-3-(3-(7-(2-(4-(2-hydroxyethyl)piperazin-1-yl)ethoxy)-6-methoxyquinazolin-4-yloxy)phenyl)urea], the Kd at RAF kinases [1] and at RAF kinases [2] was 250 to 500 nM in each case. The EC50 in the experiment with A375 cells was in the range of 250 to 500 nM. Also, the IC50 in experiment [3] is < 250 nM.

As to `COc1cc2c(Oc3cccc(NC(=O)Nc4cc(C(C)(C)C)on4)c3)ncnc2cc1OCCN1CCS(=O)(=O)CC1` [Ex 39, 1-(5-tert-butyl-isoxazol-3-yl)-3-(3-{7-[2-(1,1-dioxo-116-thiomorpholin-4-yl)-ethoxy]-6-methoxy-quinazolin-4-yloxy}-phenyl)-urea], the Kd on RAF kinases [1] and at RAF kinases [2] was 250 to 500 nM in each case. In addition, the EC50 in the experiment on A375 cells was < 250 nM. In experiment [3], the IC50 was < 250 nM.

On to `COCCOc1ccc2c(Oc3cccc(NC(=O)Nc4cc(C(C)(C)C)on4)c3)ncnc2c1` [Ex 43, 1-(5-tert-butylisoxazol-3-yl)-3-(3-(7-(2-methoxyethoxy)quinazolin-4-yloxy)phenyl)urea], for which the Kd on RAF kinases [1] was 250 to 500 nM; on RAF kinases [2] it was 500 to 1000 nM. Also, the EC50 in the experiment with A375 cells was > 1000 nM. Further, the IC50 in experiment [3] lay in the range of 250 to 500 nM.

`COCCOc1cc2c(Sc3cccc(NC(=O)Nc4cc(C(C)(C)C)on4)c3)ncnc2cc1OC` [Ex 45, 1-(5-tert-butylisoxazol-3-yl)-3-(3-(7-methoxy-6-(2-methoxyethoxy)quinazolin-4-ylthio)phenyl)urea]: the figures for the Kd at RAF kinases [1] and at RAF kinases [2] were 250 to 500 nM and 500 to 1000 nM, respectively. Further, the EC50 in the experiment with A375 cells lay within 250 to 500 nM. Moreover, in experiment [3], the 50% inhibitory concentration (IC50) is < 250 nM.

On to `COc1cc2ncnc(Sc3cccc(NC(=O)Nc4cc(C(C)(C)C)on4)c3)c2cc1OC` [Ex 46, 1-(5-tert-butylisoxazol-3-yl)-3-(3-(6,7-dimethoxyquinazolin-4-ylthio)phenyl)urea], for which the Kd on RAF kinases [1] lay within 250 to 500 nM; on RAF kinases [2], 500 to 1000 nM. Further, in the experiment on A375 cells, the EC50 is 250 to 500 nM. In experiment [3], the IC50 is < 250 nM.
